The test system of one test is HBV (genotype AeUS). Nature of the test: Test Example 2-1: anti-HBV assay in PXB-cells (fresh human hepatocytes). In kind it is cell-based, hepatitis B virus. The following applies: Hepatitis B virus, Hepatocyte, PXB-cells infected with HBV genotype AeUS, culture supernatant on day 32 post infection. Summed up:
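PXB-cells (primary human hepatocytes from chimeric mice) infected with mouse-serum-derived HBV genotype AeUS at ~10 copies/cell with 4% PEG-8000. Compound dosed days 17–32 post-infection, refreshed every 5 days, 37 °C. Day-32 supernatant HBV-DNA by real-time PCR and HBsAg by chemiluminescent immunoassay, as % of untreated control; IC50 by log-linear regression.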

Another test has as its system HBV genotype C. Nature of the test: Test Example 3-1: in vivo efficacy study in PXB mouse (chimeric mouse with human hepatocytes). The following applies: orally 100 mg/kg twice a day for 14 days. Also noted: species or system hepatitis B virus. On the procedure:
An in vivo efficacy study with a. PXB mouse (a chimeric mouse with human hepatocytes) was carried out in PhenixBio Co., Ltd. 27-Week-or-more-old male mice having body weights of 15 g or more after the elapse of 12 weeks from the infection with HBV genotype C were allocated into three groups (2 mice per group) and used.
The compounds of Examples 6-5 and 10-2 were each orally administered at 100 mg/kg twice a day for 14 days. The other group was taken as a control group for which administration was not carried out. A first administration day was taken as day 0, and before administration on day 0, day 3, Day 7, and day 10, and on day 14, the blood was collected from the orbital venous plexus under anesthesia with isoflurane. The serum was separated from the collected blood and purified with a QIAamp (registered trademark) DNA Blood Mini Kit (manufactured by QIAGEN). The amount of HBV-DNA in the obtained solution was absolutely quantified by a real-time PCR method. In addition, the amount of HBsAg and the amount of HBcrAg in the serum were each absolutely quantified by chemiluminescent enzyme immunoassay using Lumipulse (registered trademark) HBsAg-HQ (manufactured by Fujirebio Inc.) and Lumipulse (registered trademark) HBcrAg (manufactured by Fujirebio Inc.).

[1] abbreviates: Day 0 (before administration), individual mice.

Several values for one entry are separate records, joined by “and”; a condition that tells them apart may be missing. Identical values can stand only once. Like-named read-outs stand apart in the source and are kept apart here.

`COC[C@H]1CCCN1c1nc2ccc(-n3cc(C(=O)O)c(=O)cc3-c3ccc(N4CC[C@@H](OC)C4)cc3)cc2s1` [Example 10-2, 1-(2-((R)-2-(methoxymethyl)pyrrolidin-1-yl)benzo[d]thiazol-6-yl)-6-(4-((R)-3-methoxypyrrolidin-1-yl)phenyl)-4-oxo-1,4-dihydropyridine-3-carboxylic acid]: the IC50 with HBV (genotype AeUS) (read-out: IC50 HBV-DNA) was 0.018 µM; in the test with HBV (genotype AeUS) (read-out: IC50 HBsAg), 0.022 µM. The HBV-DNA in serum was 1.5E+09 copies/mL and 3.2E+09 copies/mL with HBV genotype C (setting [1]); 1.0E+09 copies/mL and 1.4E+09 copies/mL in the test with HBV genotype C (Day 3, individual mice); 6.9E+08 copies/mL and 4.7E+08 copies/mL in the test with HBV genotype C (Day 7, individual mice); 8.4E+08 copies/mL and 6.4E+08 copies/mL in the test on HBV genotype C (Day 10, individual mice); 9.6E+08 copies/mL and 1.3E+09 copies/mL in the test with HBV genotype C (Day 14, individual mice). Also, the HBcrAg in serum in the test with HBV genotype C (setting [1]) is 2.7E+08 U/mL and 4.1E+08 U/mL; with HBV genotype C (Day 3, individual mice) it was 8.8E+07 U/mL and 1.4E+08 U/mL; in the test with HBV genotype C (Day 7, individual mice), 7.5E+07 U/mL and 7.3E+07 U/mL; in the test with HBV genotype C (Day 14, individual mice) it was 7.8E+07 U/mL and 9.8E+07 U/mL. Further, the HBsAg in serum was 2,930 IU/mL and 2,629 IU/mL with HBV genotype C (setting [1]); 638 IU/mL and 564 IU/mL with HBV genotype C (Day 3, individual mice); 450 IU/mL and 429 IU/mL in the test with HBV genotype C (Day 7, individual mice); 476 IU/mL and 407 IU/mL in the test with HBV genotype C (Day 10, individual mice); 522 IU/mL and 477 IU/mL in the test with HBV genotype C (Day 14, individual mice).

Regarding `COCCN1CCN(c2nc3ccc(-n4cc(C(=O)O)c(=O)cc4-c4ccc(N5CCCC5)c(Cl)c4)cc3s2)CC1` [Example 6-5, 6-(3-chloro-4-(pyrrolidin-1-yl)phenyl)-1-(2-(4-(2-methoxyethyl)piperazine-1-yl)benzo[d]thiazol-6-yl)-4-oxo-1,4-dihydropyridine-3-carboxylic acid], the IC50 with HBV (genotype AeUS) (read-out: IC50 HBV-DNA) was less than 0.008 µM; in the test on HBV (genotype AeUS) (read-out: IC50 HBsAg), 0.016 µM. The HBV-DNA in serum with HBV genotype C (setting [1]) was 2.3E+09 copies/mL and 2.1E+09 copies/mL; in the test with HBV genotype C (Day 3, individual mice) it was 8.7E+08 copies/mL and 7.1E+08 copies/mL; in the test with HBV genotype C (Day 7, individual mice), 2.7E+08 copies/mL and 2.9E+08 copies/mL; in the test with HBV genotype C (Day 10, individual mice) it was 3.4E+08 copies/mL and 6.3E+08 copies/mL; in the test on HBV genotype C (Day 14, individual mice), 3.3E+08 copies/mL and 8.4E+08 copies/mL. The HBcrAg in serum in the test with HBV genotype C (setting [1]) was 4.5E+08 U/mL and 2.9E+08 U/mL; in the test on HBV genotype C (Day 3, individual mice), 1.5E+08 U/mL and 9.7E+07 U/mL; in the test on HBV genotype C (Day 7, individual mice), 8.7E+07 U/mL and 7.7E+07 U/mL; with HBV genotype C (Day 14, individual mice), 7.5E+07 U/mL and 9.1E+07 U/mL. Also, the HBsAg in serum in the test with HBV genotype C (setting [1]) is 3,578 IU/mL and 2,370 IU/mL; in the test with HBV genotype C (Day 3, individual mice), 781 IU/mL and 357 IU/mL; in the test on HBV genotype C (Day 7, individual mice) it was 570 IU/mL and 345 IU/mL; in the test on HBV genotype C (Day 10, individual mice), 588 IU/mL and 355 IU/mL; in the test on HBV genotype C (Day 14, individual mice), 540 IU/mL and 349 IU/mL.

The values are drawn from patent publication US11161830B2, “4-pyridone compound or salt thereof, and pharmaceutical composition and formulation including same” (priority 2017, dated 2021).
